In patent publication US20190307776A1, “AZA-S[…] HUMAN IMMUNODEFICIENCY VIRUS REPLICATION” (priority 2016, published 2019):

System: recombinant NL4-3 virus
Assay: HIV cell culture assay
Type: cell-based
Settings: Human immunodeficiency virus 1, NL43, MT2
Experimental: HIV cell culture assay—MT-2 cells and 293T cells were obtained from the NIH AIDS Research and Reference Reagent Program. MT-2 cells were propagated in RPMI 1640 media supplemented with 10% heat inactivated fetal bovine serum, 100 […]. The 293T cells were propagated in DMEM media supplemented with 10% heat inactivated fetal bovine serum (FBS), 100 units/ml penicillin G and 100 μg/ml streptomycin. The proviral DNA clone of NL4-3 was obtained from the NIH AIDS Research and Reference Reagent Program. A recombinant NL4-3 virus, in which a section of the nef gene from NL4-3 was replaced with the Renilla luciferase gene, was used as a reference virus. In addition, residue Gag P373 was converted to P373S. Briefly, the recombinant virus was prepared by transfection of the altered proviral clone of NL4-3. Transfections were performed in 293T cells using LipofectAMINE PLUS from Invitrogen (Carlsbad, Calif.), according to manufacturer's instruction. The virus was titered in MT-2 cells using luciferase enzyme activity as a marker. Luciferase was quantitated using the Dual Luciferase kit from Promega (Madison, Wis.), with modifications to the manufacturer's protocol. The diluted Passive Lysis solution was pre-mixed with the re-suspended Luciferase Assay Reagent and the re-suspended Stop & Glo Substrate (2:1:1 ratio). Fifty (50) μL of the mixture was added to each aspirated well on assay plates and luciferase activity was measured immediately on a Wallac TriLux (Perkin-Elmer). Antiviral activities of inhibitors toward the recombinant virus were quantified by measuring luciferase activity in cells infected for 4-5 days with NLRluc recombinants in the presence serial dilutions of the inhibitor.

Row | Structure (SMILES) | EC50 [nM]
1 | C=C(C)[C@@H]1CC[C@]2(CNCCCN3CCS(=O)(=O)CC3)CC[C@]3(C)[C@H](CC[C@@H]4[C@@]5(C)CCN(C(=O)C(=O)O)C(C)(C)[C@@H]5CC[C@]43C)[C@@H]12 [Example 37, 2-((4aR,6aR,6bR,8aS,11R,11aR,11bR,13aR,13bR)-8a-(((3-(1,1-dioxidothiomorpholino)propyl)amino)methyl)-4,4,6a,6b,13b-pentamethyl-11-(prop-1-en-2-yl)hexadecahydro-1H-cyclopenta[5,6]naphtho[2,1-f]isoquinolin-3(2H,4H,13bH)-yl)-2-oxoacetic acid] | > 3000
2 | C=C(C)[C@@H]1CC[C@]2(C(=O)O)CC[C@]3(C)[C@H](CC[C@@H]4[C@@]5(C)CCN(c6ncc(C(=O)O)cn6)C(C)(C)[C@@H]5CC[C@]43C)[C@@H]12 [Example 52, (4aR,6aR,6bR,8aS,11R,11aR,11bR,13aR,13bR)-3-(5-carboxypyrimidin-2-yl)-4,4,6a,6b,13b-pentamethyl-11-(prop-1-en-2-yl)icosahydro-1H-cyclopenta[5,6]naphtho[2,1-f]isoquinoline-8a-carboxylic acid] | 62
3 | C=C(C)[C@@H]1CC[C@]2(CNCCCN3CCS(=O)(=O)CC3)CC[C@]3(C)[C@H](CC[C@@H]4[C@@]5(C)CCN(c6ncc(C(=O)O)cn6)C(C)(C)[C@@H]5CC[C@]43C)[C@@H]12 [Example 49, 2-((4aR,6aR,6bR,8aS,11R,11aR,11bR,13aR,13bR)-8a-(((3-(1,1-dioxidothiomorpholino)propyl)amino)methyl)-4,4,6a,6b,13b-pentamethyl-11-(prop-1-en-2-yl)hexadecahydro-1H-cyclopenta[5,6]naphtho[2,1-f]isoquinolin-3(2H,4H,13bH)-yl)pyrimidine-5-carboxylic acid] | 0.7
4 | C=C(C)[C@@H]1CC[C@]2(CNCCCN3CCS(=O)(=O)CC3)CC[C@]3(C)[C@H](CC[C@@H]4[C@@]5(C)CCN(c6ccc(C#N)cn6)C(C)(C)[C@@H]5CC[C@]43C)[C@@H]12 [Example 40, 6-((4aR,6aR,6bR,8aS,11R,11aR,11bR,13aR,13bR)-8a-(((3-(1,1-dioxidothiomorpholino)propyl)amino)methyl)-4,4,6a,6b,13b-pentamethyl-11-(prop-1-en-2-yl)hexadecahydro-1H-cyclopenta[5,6]naphtho[2,1-f]isoquinolin-3(2H,4H,13bH)-yl)nicotinonitrile] | 760
5 | C=C(C)[C@@H]1CC[C@]2(CO)CC[C@]3(C)[C@H](CC[C@@H]4[C@@]5(C)CCN(C(=O)C(=O)O)C(C)(C)C5CC[C@]43C)[C@@H]12 (stereo partly drawn) [Example 6, 2-((6aR,6bR,8aS,11R,11aR,11bR,13aR,13bR)-8a-(hydroxymethyl)-4,4,6a,6b,13b-pentamethyl-11-(prop-1-en-2-yl)icosahydro-3H-cyclopenta[5,6]naphtho[2,1-f]isoquinolin-3-yl)-2-oxoacetic acid] | 4000
6 | C=C(C)[C@@H]1CC[C@]2(CNCCCN3CCS(=O)(=O)CC3)CC[C@]3(C)[C@H](CC[C@@H]4[C@@]5(C)CCN(C(=O)CCc6ccc(C(=O)O)cc6)C(C)(C)[C@@H]5CC[C@]43C)[C@@H]12 [Example 28, 4-(3-((4aR,6aR,6bR,8aS,11R,11aR,11bR,13aR,13bR)-8a-(((3-(1,1-dioxidothiomorpholino)propyl)amino)methyl)-4,4,6a,6b,13b-pentamethyl-11-(prop-1-en-2-yl)hexadecahydro-1H-cyclopenta[5,6]naphtho[2,1-f]isoquinolin-3(2H,4H,13bH)-yl)-3-oxopropyl)benzoic acid] | 940
7 | C=C(C)[C@@H]1CC[C@]2(CN(C)CCCN3CCS(=O)(=O)CC3)CC[C@]3(C)[C@H](CC[C@@H]4[C@@]5(C)CCN(c6ccc(C(=O)O)nc6)C(C)(C)[C@@H]5CC[C@]43C)[C@@H]12 [Example 51, 5-((4aR,6aR,6bR,8aS,11R,11aR,11bR,13aR,13bR)-8a-(((3-(1,1-dioxidothiomorpholino)propyl)(methyl)amino)methyl)-4,4,6a,6b,13b-pentamethyl-11-(prop-1-en-2-yl)hexadecahydro-1H-cyclopenta[5,6]naphtho[2,1-f]isoquinolin-3(2H,4H,13bH)-yl)picolinic acid] | 26
8 | C=C(C)[C@@H]1CC[C@]2(CNCCCN3CCS(=O)(=O)CC3)CC[C@]3(C)[C@H](CC[C@@H]4[C@@]5(C)CCN(C(=O)C(=O)NC(C)(C)C(=O)O)C(C)(C)[C@@H]5CC[C@]43C)[C@@H]12 [Example 38, 2-(2-((4aR,6aR,6bR,8aS,11R,11aR,11bR,13aR,13bR)-8a-(((3-(1,1-dioxidothiomorpholino)propyl)amino)methyl)-4,4,6a,6b,13b-pentamethyl-11-(prop-1-en-2-yl)hexadecahydro-1H-cyclopenta[5,6]naphtho[2,1-f]isoquinolin-3(2H,4H,13bH)-yl)-2-oxoacetamido)-2-methylpropanoic acid] | > 3000
9 | C=C(C)[C@@H]1CC[C@]2(CNCCCN3CCS(=O)(=O)CC3)CC[C@]3(C)[C@H](CC[C@@H]4[C@@]5(C)CCN(c6ccc([N+](=O)[O-])cc6)C(C)(C)[C@@H]5CC[C@]43C)[C@@H]12 [Example 46, 4-(3-((((4aR,6aR,6bR,8aS,11R,11aR,11bR,13aR,13bR)-4,4,6a,6b,13b-pentamethyl-3-(4-nitrophenyl)-11-(prop-1-en-2-yl)icosahydro-1H-cyclopenta[5,6]naphtho[2,1-f]isoquinolin-8a-yl)methyl)amino)propyl)thiomorpholine 1,1-dioxide] | > 330
10 | C=C(C)[C@@H]1CC[C@]2(CNCCCN3CCS(=O)(=O)CC3)CC[C@]3(C)[C@H](CC[C@@H]4[C@@]5(C)CCN(C(=O)c6ccc(C(=O)O)cc6)C(C)(C)[C@@H]5CC[C@]43C)[C@@H]12 [Example 30, 4-((4aR,6aR,6bR,8aS,11R,11aR,11bR,13aR,13bR)-8a-(((3-(1,1-dioxidothiomorpholino)propyl)amino)methyl)-4,4,6a,6b,13b-pentamethyl-11-(prop-1-en-2-yl)icosahydro-1H-cyclopenta[5,6]naphtho[2,1-f]isoquinoline-3-carbonyl)benzoic acid] | 110
11 | C=C(C)[C@@H]1CC[C@]2(CO)CC[C@]3(C)[C@H](CC[C@@H]4[C@@]5(C)CCN(C(=O)CCCC(=O)O)C(C)(C)C5CC[C@]43C)[C@@H]12 (stereo partly drawn) [Example 8, 5-((6aR,6bR,8aS,11R,11aR,11bR,13aR,13bR)-8a-(hydroxymethyl)-4,4,6a,6b,13b-pentamethyl-11-(prop-1-en-2-yl)icosahydro-3H-cyclopenta[5,6]naphtho[2,1-f]isoquinolin-3-yl)-5-oxopentanoic acid] | 1810
12 | C=C(C)[C@@H]1CC[C@]2(CNCCCN3CCS(=O)(=O)CC3)CC[C@]3(C)[C@H](CC[C@@H]4[C@@]5(C)CCN(c6ccc(C#N)nc6)C(C)(C)[C@@H]5CC[C@]43C)[C@@H]12 [Example 43, 5-((4aR,6aR,6bR,8aS,11R,11aR,11bR,13aR,13bR)-8a-(((3-(1,1-dioxidothiomorpholino)propyl)amino)methyl)-4,4,6a,6b,13b-pentamethyl-11-(prop-1-en-2-yl)hexadecahydro-1H-cyclopenta[5,6]naphtho[2,1-f]isoquinolin-3(2H,4H,13bH)-yl)picolinonitrile] | 280
13 | C=C(C)[C@@H]1CC[C@]2(CO)CC[C@]3(C)[C@H](CC[C@@H]4[C@@]5(C)CCN(S(=O)(=O)c6ccc(C(=O)O)cc6)C(C)(C)C5CC[C@]43C)[C@@H]12 (stereo partly drawn) [Example 20, 4-(((6aR,6bR,8aS,11R,11aR,11bR,13aR,13bR)-8a-(hydroxymethyl)-4,4,6a,6b,13b-pentamethyl-11-(prop-1-en-2-yl)icosahydro-3H-cyclopenta[5,6]naphtho[2,1-f]isoquinolin-3-yl)sulfonyl)benzoic acid] | 3100
14 | C=C(C)[C@@H]1CC[C@]2(CNCCCN3CCS(=O)(=O)CC3)CC[C@]3(C)[C@H](CC[C@@H]4[C@@]5(C)CCN(c6ccc(C(=O)O)cn6)C(C)(C)[C@@H]5CC[C@]43C)[C@@H]12 [Example 42, 6-((4aR,6aR,6bR,8aS,11R,11aR,11bR,13aR,13bR)-8a-(((3-(1,1-dioxidothiomorpholino)propyl)amino)methyl)-4,4,6a,6b,13b-pentamethyl-11-(prop-1-en-2-yl)hexadecahydro-1H-cyclopenta[5,6]naphtho[2,1-f]isoquinolin-3(2H,4H,13bH)-yl)nicotinic acid] | 3
15 | C=C(C)[C@@H]1CC[C@]2(CO)CC[C@]3(C)[C@H](CC[C@@H]4[C@@]5(C)CCN(S(=O)(=O)c6cccc(C(=O)O)c6)C(C)(C)C5CC[C@]43C)[C@@H]12 (stereo partly drawn) [Example 17, 3-(((6aR,6bR,8aS,11R,11aR,11bR,13aR,13bR)-8a-(hydroxymethyl)-4,4,6a,6b,13b-pentamethyl-11-(prop-1-en-2-yl)icosahydro-3H-cyclopenta[5,6]naphtho[2,1-f]isoquinolin-3-yl)sulfonyl)benzoic acid] | 4940
